Assay results from patent publication US20140187475A1, “Lantibiotic Compositions and Methods For Preventing or Treating Mastitis” (Medela Holding AG, priority 2012, published 2014).

System: bacteria
Assay: antimicrobial activity of nisin preparations placed on a skin or agar surface
Format: cell-based
Description: Most important in this embodiment is the principle that nisin must be placed in the external aqueous phase of this preparation. […] In an ointment preparation, it is retained by the lipid phase and fails to dissipate and kill bacteria.

With Nisin the antimicrobial activity (nisin in an ointment preparation with little or no water) was “largely inactive” and the antimicrobial activity (nisin in the external aqueous phase of an oil in water emulsion, placed on a skin or agar surface) was “highly active”.
